# Values quoted from earlier work, collected in patent US6700032B1, “Wound care management” (Leatherite Pty Limited, priority 1996, dated 2004).
# Details: recommended concentrations
substance,measurement,value
"2,4,4′-trichloro-2′-hydroxy diphenyl ether [Triclosan]",toxicological testing,safe at recommended concentrations
